Data published in ChEMBL document CHEMBL4507269, “Data for DCP probe BAY-386” (2021).

Tests used:
[1] = target: Proteinase-activated receptor 4 (Homo sapiens, UniProt Q96RI0); assay: Functional cellular assay (HEK cells) (F2RL3)
[2] = target: T1, Adenosine receptor A3 (Homo sapiens) (UniProt P0DMS8); assay: A3 (h) Eurofins-Cerep Cellular and Nuclear Receptor Functional Assays; details: Compound concentration 10.0 uM
T1 sequence (whole entry): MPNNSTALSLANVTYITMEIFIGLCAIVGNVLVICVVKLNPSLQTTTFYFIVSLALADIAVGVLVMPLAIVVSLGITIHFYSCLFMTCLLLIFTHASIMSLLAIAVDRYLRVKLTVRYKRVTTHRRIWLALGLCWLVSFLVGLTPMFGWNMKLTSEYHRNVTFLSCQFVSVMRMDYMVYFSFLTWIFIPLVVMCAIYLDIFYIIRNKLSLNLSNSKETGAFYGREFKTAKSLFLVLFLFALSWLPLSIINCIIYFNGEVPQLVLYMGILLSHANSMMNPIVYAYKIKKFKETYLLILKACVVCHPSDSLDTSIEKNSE

[3] = target: Histamine H1 receptor (Homo sapiens) (UniProt P35367); assay: H1 (h) Eurofins-Cerep Cellular and Nuclear Receptor Functional Assays; details: Compound concentration 10.0 uM
Chain of Histamine H1 receptor (Homo sapiens) (P35367 whole entry): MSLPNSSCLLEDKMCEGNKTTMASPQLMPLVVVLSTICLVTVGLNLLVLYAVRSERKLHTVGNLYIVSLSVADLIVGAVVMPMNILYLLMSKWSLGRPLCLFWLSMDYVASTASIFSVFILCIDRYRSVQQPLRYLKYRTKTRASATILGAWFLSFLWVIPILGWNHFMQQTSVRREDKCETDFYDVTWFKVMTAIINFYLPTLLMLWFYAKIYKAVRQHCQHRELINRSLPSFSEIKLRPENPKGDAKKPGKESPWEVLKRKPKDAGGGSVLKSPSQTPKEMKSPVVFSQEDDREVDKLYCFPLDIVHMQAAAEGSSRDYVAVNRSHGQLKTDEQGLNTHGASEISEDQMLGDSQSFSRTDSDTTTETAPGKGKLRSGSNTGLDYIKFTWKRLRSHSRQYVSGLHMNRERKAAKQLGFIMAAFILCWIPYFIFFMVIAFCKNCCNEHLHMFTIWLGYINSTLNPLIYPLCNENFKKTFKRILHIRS

[4] = target: Substance-P receptor (Homo sapiens) (UniProt P25103); assay: NK1 (h) Eurofins-Cerep Cellular and Nuclear Receptor Functional Assays; details: Compound concentration 10.0 uM
Chain of Substance-P receptor (Homo sapiens) (P25103 whole entry): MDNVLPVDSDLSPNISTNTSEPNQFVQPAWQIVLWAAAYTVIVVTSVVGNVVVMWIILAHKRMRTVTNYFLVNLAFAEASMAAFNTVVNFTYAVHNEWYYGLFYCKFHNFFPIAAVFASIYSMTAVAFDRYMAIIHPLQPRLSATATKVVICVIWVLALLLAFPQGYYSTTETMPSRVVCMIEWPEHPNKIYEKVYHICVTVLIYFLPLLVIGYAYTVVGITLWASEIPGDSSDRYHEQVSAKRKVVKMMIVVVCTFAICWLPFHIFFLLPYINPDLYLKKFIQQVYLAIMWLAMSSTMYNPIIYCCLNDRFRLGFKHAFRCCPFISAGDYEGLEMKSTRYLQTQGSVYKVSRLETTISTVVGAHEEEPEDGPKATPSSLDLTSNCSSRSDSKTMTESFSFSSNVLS

[5] = tested on: Tyrosine-protein kinase ABL1 (Homo sapiens), P00519 [H396P]; details: Compound concentration 1000.0 nM
[6] = tested on: Tyrosine-protein kinase ABL1 (Homo sapiens), P00519 [Q252H]; details: Compound concentration 1000.0 nM
[7] = target: Activin receptor type-2A (Homo sapiens) (UniProt P27037); details: Compound concentration 1000.0 nM
Chain of Activin receptor type-2A (Homo sapiens) (P27037 whole entry): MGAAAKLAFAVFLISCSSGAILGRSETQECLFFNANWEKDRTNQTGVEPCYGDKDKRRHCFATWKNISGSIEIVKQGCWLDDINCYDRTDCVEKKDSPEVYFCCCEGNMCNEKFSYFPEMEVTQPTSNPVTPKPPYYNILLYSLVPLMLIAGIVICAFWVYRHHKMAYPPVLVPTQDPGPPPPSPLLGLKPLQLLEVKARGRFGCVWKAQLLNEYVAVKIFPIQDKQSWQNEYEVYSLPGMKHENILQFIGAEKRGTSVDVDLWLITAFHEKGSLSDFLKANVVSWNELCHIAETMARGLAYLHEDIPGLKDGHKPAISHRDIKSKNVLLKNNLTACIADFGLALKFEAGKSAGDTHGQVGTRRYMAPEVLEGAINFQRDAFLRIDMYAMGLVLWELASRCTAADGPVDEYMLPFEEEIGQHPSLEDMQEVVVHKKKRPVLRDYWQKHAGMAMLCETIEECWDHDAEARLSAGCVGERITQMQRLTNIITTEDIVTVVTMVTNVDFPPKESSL

[8] = target: Atypical kinase COQ8A, mitochondrial (Homo sapiens) (UniProt Q8NI60); details: Compound concentration 1000.0 nM
[9] = target: Bone morphogenetic protein receptor type-1B (Homo sapiens) (UniProt O00238); details: Compound concentration 1000.0 nM
[10] = target: Calcium/calmodulin-dependent protein kinase type 1B (Homo sapiens) (UniProt Q6P2M8); details: Compound concentration 1000.0 nM
[11] = target: Cyclin-dependent kinase 11A (Homo sapiens) (UniProt Q9UQ88); details: Compound concentration 1000.0 nM
[12] = target: Casein kinase I isoform alpha (Homo sapiens) (UniProt P48729); details: Compound concentration 1000.0 nM
[13] = target: Death-associated protein kinase 1 (Homo sapiens) (UniProt P53355); details: Compound concentration 1000.0 nM
[14] = target: Ephrin type-B receptor 4 (Homo sapiens) (UniProt P54760); details: Compound concentration 1000.0 nM
[15] = tested on: Fibroblast growth factor receptor 3 (Homo sapiens), P22607 [G697C]; details: Compound concentration 1000.0 nM
[16] = tested on: Receptor-type tyrosine-protein kinase FLT3 (Homo sapiens), P36888 [K663Q]; details: Compound concentration 1000.0 nM
[17] = tested on: Receptor-type tyrosine-protein kinase FLT3 (Homo sapiens), P36888 [N841I]; details: Compound concentration 1000.0 nM
[18] = target: Homeodomain-interacting protein kinase 2 (Homo sapiens) (UniProt Q9H2X6); details: Compound concentration 1000.0 nM
[19] = target: Mitogen-activated protein kinase kinase kinase kinase 1 (Homo sapiens) (UniProt Q92918); details: Compound concentration 1000.0 nM
[20] = target: Inhibitor of nuclear factor kappa-B kinase subunit epsilon (Homo sapiens) (UniProt Q14164); details: Compound concentration 1000.0 nM
[21] = target: Insulin receptor (Homo sapiens) (UniProt P06213); details: Compound concentration 1000.0 nM
[22] = target: Insulin receptor-related protein (Homo sapiens) (UniProt P14616); details: Compound concentration 1000.0 nM
[23] = target: Maternal embryonic leucine zipper kinase (Homo sapiens) (UniProt Q14680); details: Compound concentration 1000.0 nM
[24] = target: Misshapen-like kinase 1 (Homo sapiens) (UniProt Q8N4C8); details: Compound concentration 1000.0 nM
[25] = target: Myosin light chain kinase (Homo sapiens) (UniProt Q32MK0); details: Compound concentration 1000.0 nM
Chain of Myosin light chain kinase (Homo sapiens) (Q32MK0 whole entry): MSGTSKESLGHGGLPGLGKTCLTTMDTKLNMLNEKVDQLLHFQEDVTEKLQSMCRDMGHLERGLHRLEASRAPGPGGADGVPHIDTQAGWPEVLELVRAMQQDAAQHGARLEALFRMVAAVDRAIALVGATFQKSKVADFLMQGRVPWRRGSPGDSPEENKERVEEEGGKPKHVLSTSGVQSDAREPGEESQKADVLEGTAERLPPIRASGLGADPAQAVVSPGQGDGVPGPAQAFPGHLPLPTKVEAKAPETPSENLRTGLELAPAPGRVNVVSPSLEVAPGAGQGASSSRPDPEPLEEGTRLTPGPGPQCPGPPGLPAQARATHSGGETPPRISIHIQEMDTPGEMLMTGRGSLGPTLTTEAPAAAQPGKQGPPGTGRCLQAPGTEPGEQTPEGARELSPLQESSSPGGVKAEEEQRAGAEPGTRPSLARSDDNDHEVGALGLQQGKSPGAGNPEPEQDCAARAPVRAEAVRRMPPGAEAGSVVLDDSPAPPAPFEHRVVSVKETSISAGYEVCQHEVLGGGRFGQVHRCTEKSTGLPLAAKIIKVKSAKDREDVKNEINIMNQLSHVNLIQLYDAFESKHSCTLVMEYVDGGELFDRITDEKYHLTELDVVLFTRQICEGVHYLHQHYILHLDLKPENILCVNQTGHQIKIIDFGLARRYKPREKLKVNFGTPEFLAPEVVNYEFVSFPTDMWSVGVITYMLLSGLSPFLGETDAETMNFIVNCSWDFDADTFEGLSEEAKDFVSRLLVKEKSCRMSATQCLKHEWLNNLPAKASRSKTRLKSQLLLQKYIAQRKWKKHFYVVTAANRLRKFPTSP

[26] = target: Serine/threonine-protein kinase 24 (Homo sapiens) (UniProt Q9Y6E0); details: Compound concentration 1000.0 nM
[27] = target: Serine/threonine-protein kinase 38 (Homo sapiens) (UniProt Q15208); details: Compound concentration 1000.0 nM
[28] = target: Mitogen-activated protein kinase kinase kinase 14 (Homo sapiens) (UniProt Q99558); details: Compound concentration 1000.0 nM
[29] = target: Phosphatidylinositol 4,5-bisphosphate 3-kinase catalytic subunit alpha isoform (Homo sapiens) (UniProt P42336); details: Compound concentration 1000.0 nM
Chain of Phosphatidylinositol 4,5-bisphosphate 3-kinase catalytic subunit alpha isoform (Homo sapiens) (P42336 whole entry, canonical isoform): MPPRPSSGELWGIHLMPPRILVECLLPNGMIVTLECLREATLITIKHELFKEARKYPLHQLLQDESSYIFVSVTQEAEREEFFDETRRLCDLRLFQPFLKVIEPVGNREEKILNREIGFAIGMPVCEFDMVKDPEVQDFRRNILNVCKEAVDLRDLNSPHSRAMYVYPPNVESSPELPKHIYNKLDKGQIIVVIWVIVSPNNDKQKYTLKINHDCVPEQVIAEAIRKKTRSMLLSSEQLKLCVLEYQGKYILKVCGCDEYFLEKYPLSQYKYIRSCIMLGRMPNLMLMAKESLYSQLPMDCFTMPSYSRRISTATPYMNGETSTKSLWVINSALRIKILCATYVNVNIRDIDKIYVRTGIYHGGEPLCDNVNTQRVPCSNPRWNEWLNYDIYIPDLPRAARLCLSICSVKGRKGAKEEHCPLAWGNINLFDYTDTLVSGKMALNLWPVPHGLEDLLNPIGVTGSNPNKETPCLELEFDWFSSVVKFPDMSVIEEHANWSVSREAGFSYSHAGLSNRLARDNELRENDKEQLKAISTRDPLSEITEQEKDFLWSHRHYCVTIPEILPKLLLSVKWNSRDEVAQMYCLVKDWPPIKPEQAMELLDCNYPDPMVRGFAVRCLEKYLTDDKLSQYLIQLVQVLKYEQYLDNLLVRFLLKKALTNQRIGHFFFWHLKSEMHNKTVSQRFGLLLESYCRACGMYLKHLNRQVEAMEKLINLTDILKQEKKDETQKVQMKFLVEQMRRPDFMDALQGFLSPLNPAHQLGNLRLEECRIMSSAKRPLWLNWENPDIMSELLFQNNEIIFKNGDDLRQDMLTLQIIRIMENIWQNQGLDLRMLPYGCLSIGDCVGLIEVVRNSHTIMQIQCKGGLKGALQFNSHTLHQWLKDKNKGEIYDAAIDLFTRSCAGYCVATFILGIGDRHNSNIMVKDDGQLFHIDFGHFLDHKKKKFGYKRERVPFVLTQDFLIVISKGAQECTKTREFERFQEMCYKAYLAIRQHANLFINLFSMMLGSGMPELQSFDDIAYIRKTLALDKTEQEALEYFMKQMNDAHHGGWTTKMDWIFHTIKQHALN

[30] = target: Serine/threonine-protein kinase PknB (Mycobacterium tuberculosis) (UniProt P9WI81); details: Compound concentration 1000.0 nM
Chain of Serine/threonine-protein kinase PknB (Mycobacterium tuberculosis) (P9WI81 whole entry): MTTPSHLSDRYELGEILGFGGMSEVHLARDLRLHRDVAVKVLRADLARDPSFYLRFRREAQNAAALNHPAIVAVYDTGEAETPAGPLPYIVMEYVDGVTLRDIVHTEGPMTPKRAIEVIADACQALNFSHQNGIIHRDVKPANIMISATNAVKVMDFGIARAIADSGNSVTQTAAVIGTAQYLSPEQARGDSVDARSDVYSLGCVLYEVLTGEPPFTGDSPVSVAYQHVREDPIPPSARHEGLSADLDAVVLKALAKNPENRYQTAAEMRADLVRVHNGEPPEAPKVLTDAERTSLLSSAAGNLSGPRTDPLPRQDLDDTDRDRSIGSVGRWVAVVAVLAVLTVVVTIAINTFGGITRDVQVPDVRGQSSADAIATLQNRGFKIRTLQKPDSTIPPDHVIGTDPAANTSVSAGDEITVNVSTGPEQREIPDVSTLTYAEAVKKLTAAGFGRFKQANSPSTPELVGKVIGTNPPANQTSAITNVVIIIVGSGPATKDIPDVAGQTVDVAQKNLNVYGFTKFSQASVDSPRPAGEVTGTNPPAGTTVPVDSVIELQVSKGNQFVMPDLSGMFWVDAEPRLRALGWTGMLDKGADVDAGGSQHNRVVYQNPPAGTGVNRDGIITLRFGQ

[31] = target: cAMP-dependent protein kinase catalytic subunit PRKX (Homo sapiens) (UniProt P51817); details: Compound concentration 1000.0 nM
[32] = target: Receptor-interacting serine/threonine-protein kinase 2 (Homo sapiens) (UniProt O43353); details: Compound concentration 1000.0 nM
[33] = target: Ribosomal protein S6 kinase beta-1 (Homo sapiens) (UniProt P23443); details: Compound concentration 1000.0 nM
[34] = target: Serine/threonine-protein kinase SIK2 (Homo sapiens) (UniProt Q9H0K1); details: Compound concentration 1000.0 nM
[35] = target: TGF-beta receptor type-1 (Homo sapiens) (UniProt P36897); details: Compound concentration 1000.0 nM
[36] = target: Phosphatidylinositol 3-kinase catalytic subunit type 3 (Homo sapiens) (UniProt Q8NEB9); details: Compound concentration 1000.0 nM
[37] = target: 5-hydroxytryptamine receptor 1B (Homo sapiens) (UniProt P28222); details: Compound concentration 10.0 uM
[38] = target: D(2) dopamine receptor (Homo sapiens) (UniProt P14416); details: Compound concentration 10.0 uM
[39] = target: Kappa-type opioid receptor (Homo sapiens) (UniProt P41145); details: Compound concentration 10.0 uM
Chain of Kappa-type opioid receptor (Homo sapiens) (P41145 whole entry): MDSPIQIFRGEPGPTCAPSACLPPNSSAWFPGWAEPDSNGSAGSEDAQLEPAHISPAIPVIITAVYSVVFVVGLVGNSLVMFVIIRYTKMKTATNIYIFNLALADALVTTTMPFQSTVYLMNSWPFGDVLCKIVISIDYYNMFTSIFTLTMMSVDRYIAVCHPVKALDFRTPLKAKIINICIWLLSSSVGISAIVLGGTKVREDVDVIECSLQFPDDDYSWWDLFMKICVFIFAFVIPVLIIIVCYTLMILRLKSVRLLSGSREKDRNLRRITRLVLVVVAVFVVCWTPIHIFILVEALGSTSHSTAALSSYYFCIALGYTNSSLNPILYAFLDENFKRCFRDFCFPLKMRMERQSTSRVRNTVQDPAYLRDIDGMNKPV

[40] = target: Histamine H3 receptor (Homo sapiens) (UniProt Q9Y5N1); details: Compound concentration 10.0 uM
[41] = target: Beta-2 adrenergic receptor (Homo sapiens) (UniProt P07550); details: Compound concentration 10.0 uM
Chain of Beta-2 adrenergic receptor (Homo sapiens) (P07550 whole entry, looked up): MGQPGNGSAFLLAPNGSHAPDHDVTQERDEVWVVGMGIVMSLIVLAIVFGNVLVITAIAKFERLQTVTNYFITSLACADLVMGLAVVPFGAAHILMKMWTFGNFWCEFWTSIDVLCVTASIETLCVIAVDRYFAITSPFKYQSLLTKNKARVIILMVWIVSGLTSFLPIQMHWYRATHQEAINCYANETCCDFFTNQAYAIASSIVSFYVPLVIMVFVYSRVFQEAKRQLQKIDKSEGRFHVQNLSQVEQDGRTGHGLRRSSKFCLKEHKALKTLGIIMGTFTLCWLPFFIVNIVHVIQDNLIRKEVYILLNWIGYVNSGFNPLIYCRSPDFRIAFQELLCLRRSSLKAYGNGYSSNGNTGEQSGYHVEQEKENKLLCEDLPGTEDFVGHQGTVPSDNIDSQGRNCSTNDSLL

With O=C(N1CCS(=O)(=O)CC1)N1C[C@H](c2ccc(OC(F)(F)F)cc2)C[C@H](c2nc(C3CC3)no2)C1 [BAY-386] the IC50 [1] was > 10 µM (not active), the % Inhibition of Control Agonist Response (Mean n=2) [2] was -13.1% and the % of Control Agonist Response (Mean n=2) [2] was 2.5%. For the same molecule, the % Inhibition of Control Agonist Response (Mean n=2) [3] was 6.9%, the % of Control Agonist Response (Mean n=2) [3] was 4.1% and the % Inhibition of Control Agonist Response (Mean n=2) [4] was 23.3%. For the same molecule, the % of Control Agonist Response (Mean n=2) [4] was 1.8%, the residual activity [5] was 100% and the residual activity [6] was 100%. It also gave a residual activity [7] of 98%, a residual activity [8] of 100% and a residual activity [9] of 82%. The residual activity [10] was 100%, the residual activity [11] was 0% and the residual activity [12] was 100%. It also gave a residual activity [13] of 92%, a residual activity [14] of 100% and a residual activity [15] of 100%. It also gave a residual activity [16] of 100%, a residual activity [17] of 100% and a residual activity [18] of 100%. It also gave a residual activity [19] of 100%, a residual activity [20] of 100% and a residual activity [21] of 94%. The residual activity [22] was 97%, the residual activity [23] was 100% and the residual activity [24] was 99%. For the same molecule, the residual activity [25] was 79%, the residual activity [26] was 97% and the residual activity [27] was 100%. For the same molecule, the residual activity [28] was 87%, the residual activity [29] was 100% and the residual activity [30] was 100%. For the same molecule, the residual activity [31] was 100%, the residual activity [32] was 90% and the residual activity [33] was 100%. For the same molecule, the residual activity [34] was 100%, the residual activity [35] was 100% and the residual activity [36] was 100%. For the same molecule, the inhibition [37] was 30.8%, the inhibition [38] was -0.71% and the inhibition [39] was 1.29%. For the same molecule, the inhibition [40] was -6.71% and the inhibition [41] was 11.8%.
Cc1noc([C@H]2C[C@@H](c3ccc(C(F)(F)F)cc3)CN(C(=O)N3CCS(=O)(=O)C3)C2)n1 [BAY-448] was tested, and the IC50 [1] was > 5 µM (not active), the % Inhibition of Control Agonist Response (Mean n=2) [2] was 12.2% and the % of Control Agonist Response (Mean n=2) [2] was 19.2%. For the same molecule, the % Inhibition of Control Agonist Response (Mean n=2) [3] was -14.6%, the % of Control Agonist Response (Mean n=2) [3] was 0.3% and the % Inhibition of Control Agonist Response (Mean n=2) [4] was 2.1%. The % of Control Agonist Response (Mean n=2) [4] was 0.3%, the residual activity [5] was 100% and the residual activity [6] was 100%. It also gave a residual activity [7] of 100%, a residual activity [8] of 91% and a residual activity [9] of 100%. For the same molecule, the residual activity [10] was 100%, the residual activity [11] was 100% and the residual activity [12] was 70%. It also gave a residual activity [13] of 100%, a residual activity [14] of 100% and a residual activity [15] of 84%. The residual activity [16] was 100%, the residual activity [17] was 100% and the residual activity [18] was 100%. It also gave a residual activity [19] of 100%, a residual activity [20] of 100% and a residual activity [21] of 85%. The residual activity [22] was 100%, the residual activity [23] was 100% and the residual activity [24] was 100%. It also gave a residual activity [25] of 100%, a residual activity [26] of 100% and a residual activity [27] of 100%. For the same molecule, the residual activity [28] was 91%, the residual activity [29] was 99% and the residual activity [30] was 82%. It also gave a residual activity [31] of 100%, a residual activity [32] of 100% and a residual activity [33] of 75%. The residual activity [34] was 100%, the residual activity [35] was 100% and the residual activity [36] was 90%. It also gave an inhibition [37] of 4.16%, an inhibition [38] of -0.15% and an inhibition [39] of 7.69%. For the same molecule, the inhibition [40] was 5.78% and the inhibition [41] was 24%.
